Laboratory results as given in patent US11007177B2, “Compositions comprising a combination of a substituted flavonoid and a substituted indole for treating ocular diseases” (University of Macau, priority 2015, dated 2021).

System: TSP-1 null mice
Test: Corneal fluorescein staining in murine model of Sjögren's syndrome
Type: in vivo
Settings: 5 μL eye drops twice daily, 30 μM quercetin and/or 0.5 μM I3O in PBS
Experimental: Mice. Thrombospondin (TSP)-1 null mice (C57BL/6 background), were bred in-house in a pathogen-free facility at Boston University School of Medicine, Boston, Mass. All experiments were conducted in accordance with institutional guidelines and ARVO Statement of the Use of Animals in Ophthalmic and Vision Research.
Corneal Fluorescein Staining. Sodium fluorescein (1%), 1 μl was applied to the cornea of mice under anesthesia. Three minutes later, eyes were flushed with PBS to remove excess fluorescein, and corneal staining was evaluated and photographed with a slit lamp biomicroscope (Humphrey-Zeiss, Dublin, Calif.) using a cobalt blue light. Punctate staining was recorded using a standardized National Eye Institute grading system of 0 to 3 for each of the five areas of the cornea (Lemp, 1995, CLAO J. 21:221-232).
TSP-1 deficient (null) mice (12 wk old) were treated with eyedrops twice daily for a period of two weeks. The 5 μL eye drops were either PBS as a control or 0.5 μM I3O and 30 μM quercetin in PBS, 0.5 μM I3O alone in PBS, or 30 μM quercetin alone in PBS. […] Clinical signs of dry eye disease, including effect on the corneal surface and peroxidase levels in tears, were measured at baseline (prior to initiating treatment) and at the end of week 1 and effect on the corneal surface was assayed again at the end of week 2. […]

O=C1Nc2ccccc2/C1=C1/Nc2ccccc2/C1=N\O [Heterodimer I3O, indirubin-3′-oxime]
corneal surface / corneal fluorescein score, week 2 (week 2, FIG. 5): small improvement in corneal fluorescein score at week 2, but it was not significant

O=c1c(O)c(-c2ccc(O)c(O)c2)oc2cc(O)cc(O)c12 [quercetin]
corneal surface / corneal fluorescein score, week 1 (week 1, FIG. 5): significant improvement in the corneal surface
